Experimental findings from PMC3909264, “A Novel Acylaminoimidazole Derivative, WN1316, Alleviates Disease Progression via Suppression of Glial Inflammation in ALS Mouse Model” (PLoS ONE, 2014) are described below.

The test system of one data set is HeLa cells. The data set can be described thus: Detection of intracellular ROS, •OH and 4-HNE after oxidative insult. The format is cell-based, human. The following applies: 10 µM, 8 h, then menadione or FeSO4/H2O2 1 h. Here is the method: HeLa cells (ATCC, CCL-2) cultured on poly-L-lysine-coated coverslips were treated with WN1316 (10 µM) or vehicle (DMSO) for 8 h and incubated with 10 µM H2DCF-DA for 30 min. Cells were then exposed to 60 µM menadione for 1 h. Confocal fluorescence images were obtained using Zeiss LSM 700 confocal microscope.
To detect the hydroxyl radical (•OH), we used hydroxyphenyl fluorescein (HPF) as a specific probe. In brief, HeLa cells were treated with WN1316 (10 µM) or vehicle (DMSO) for 8 h and then incubated with 100 µM HPF for 30 min at 37°C in Hanks’s buffer (Invitrogen). After washing with phosphate-buffered saline (PBS), the reaction buffer (0.1 mM FeSO4, 0.2 mM H2O2) was added, and cells were incubated for 1 h at 37°C to generate •OH. Confocal fluorescence images were obtained using the lambda mode of Zeiss LSM 510 Meta confocal microscope and analytical software.
HeLa cells cultured on poly-L-lysine-coated coverslips were treated with 10 µM WN1316 or DMSO for 8 h, and then incubated in fresh medium containing 60 µM menadione for 1 h. Cells were fixed in 0.1% glutaraldehyde/4% paraformaldehyde/PBS for 10 min, rinsed three times with PBS, and permeabilized with 0.1% Triton-X-100 for 15 min. […]

Another data set has as its system ALS(SOD1^H46R) mice. Put plainly: Histopathology, immunohistochemistry and Western blot of spinal cord, ventral root and muscle of treated ALS(SOD1^H46R) mice. It is filed as in vivo, mouse. Here is the method:
At 21–22 weeks of age (late-symptomatic stage), mice were anesthetized with 2% isoflurane by inhalation. Anesthetized mice were transcardially perfused with physiological saline containing 10% heparin, followed by 4% paraformaldehyde (PFA) in 0.1 M phosphate buffer (PB) (pH 7.2). Spinal cord was removed, and lumbar segment was dissected.
For the preparation of paraffin-embedding tissue, lumbar segment was post-fixed with the same fixative for 48 h at 4°C and embedded in paraffin. Serial transverse sections (6 µm thickness) of lumbar segment (L4–L5) were sliced and stained with hematoxylin and eosin (H&E) for histopathological evaluation.
For the preparation of frozen-embedding tissue, lumbar segment was post-fixed with 4% PFA in 0.1 M PB (pH 7.2) for 24 h at 4°C, and then processed in 30% sucrose in 0.1 M PB (pH 7.2) containing 0.1% NaN3 for 96 h at 4°C (for cryoprotection) followed by frozen-embedding. Ten µm frozen sections were cut on a cryostat and used for fluorescent immunohistochemistry.
Immunohistochemical analyses with anti-ChAT, anti-Iba-1, anti-GFAP, anti-MAP2, anti-IL-1β and anti-8-OHdG antibodies were performed. For immunostaining with anti-ChAT antibody, the deparaffinized sections from late-symptomatic mice were pre-treated by autoclaving at 121°C for 5 min in HISTOFINE antigen retrieval solution (pH 9.0) (Nichirei). For immunostaining with anti-Iba-1 antibody, the deparaffinized sections from late-symptomatic mice were pre-treated by autoclaving at 121°C for 10 min in 10 mM citrate buffer (pH 6.0). For immunostaining with anti-GFAP antibody, the deparaffinized sections were used without any pretreatment. The sections were incubated with 0.3% H2O2 in methanol for 30 min and then with phosphate-buffered saline (PBS) (pH 7.2) containing 0.3% Triton X-100 for 30 min. After the treatment with PBS containing 5% normal goat serum (NGS) (Vector Laboratories)/0.05% Triton X-100 or 5% normal rabbit serum (NRS) (Vector Laboratories)/0.05% Triton X-100 for 1 h at room temperature, the sections were incubated with either anti-GFAP or anti-Iba-1 antibody in PBS containing 1.5% NGS/0.05% Triton X-100 or with anti-ChAT antibody in PBS containing 1.5% NRS/0.05% Triton X-100 overnight at 4°C. The sections were then incubated with HISTOFINE simple stain mouse MAX-PO (R) (Nichirei) or with HISTOFINE simple stain mouse MAX-PO (G) (Nichirei) for 1 hr at room temperature. The sections were visualized using 0.05% 3,3-diaminobenzidine tetrahydrochloride (DAB) (Wako) and 0.015% H2O2 in 50 mM Tris-HCl (pH 7.5) buffer, and the DAB reaction products were observed under a light microscope (BIOREVO BZ-9000, KEYENCE).
For double-immunostaining using frozen section, sections from late-symptomatic mice were washed with PBS, and treated with PBS containing 3% normal horse serum (NHS) (Vector Laboratories)/0.3% Triton X-100 for 1 h at room temperature. The sections were incubated with anti-IL-1β antibody in PBS containing 0.01% Triton X-100 for 48 h at 4°C, and then were incubated with CF^TM488A donkey anti-goat IgG (H+L) (1∶400, Biotium) in PBS containing 0.01% Triton X-100 for 1 h at room temperature. Next, the sections were incubated with anti-GFAP, anti-Iba-1 or anti-MAP2 antibody in PBS containing 0.01% Triton X-100 overnight at 4°C, and then were incubated with CF^TM555 goat anti-rabbit IgG (H+L) (1∶400, Biotium) in PBS containing 0.01% Triton X-100 for 1 h at room temperature. Fluorescent signals were observed under a light microscope (BIOREVO BZ-9000, KEYENCE).
For double-immunostaining of deparaffinized tissue, sections from late-symptomatic mice were pre-treated by autoclaving at 121°C for 10 min in 10 mM citrate buffer (pH 6.0). After the treatment with PBS containing 5%NGS/0.05% Triton X-100, the sections were incubated with anti-8-OHdG and anti-GFAP, anti-Iba-1 or anti-MAP2 antibodies in PBS containing 1.5% NGS/0.05% Triton X-100 overnight at 4°C. […]

The structures appear in SMILES notation. Structures can show the parent of a compound that is named as a salt.

For `Cc1cc(C)c(N(C)CC(=O)Nc2nc(-c3ccccn3)c[nH]2)c(C)c1` [WN1316, 2-[mesityl(methyl)amino]-N-[4-(pyridin-2-yl)-1H-imidazol-2-yl] acetamide trihydrochloride], in the data set with HeLa cells, the “level of intracellular •OH and lipid peroxidation” value is “markedly reduced their levels”. Further, in the data set with ALS(SOD1^H46R) mice (10 µg/kg, 21–22 weeks of age), the “DNA oxidation (8-OHdG) in lumbar spinal cord” value is reported as “remarkable reduction”, the “IL-1β immunoreactivity in astrocytes” value is given as “diminished dramatically”, the “iNOS generation in lumbar spinal cord (Western blot)” value was “decreased” and the “large myelinated axons in the L5 ventral root” value is given as “preservation of large myelinated axons”. The “GFAP and Iba-1 immunoreactivity in lumbar spinal cord anterior horn” value in the data set on ALS(SOD1^H46R) mice (10 µg/kg, 21–22 weeks of age, vs vehicle) is reported as “significant reduction”. Also, the “protein levels of mutant SOD1 in NP-40-soluble and NP-40-insoluble/SDS-soluble fractions” value in the data set with ALS(SOD1^H46R) mice (10 µg/kg, vs vehicle, 21–22 weeks of age) was “no significant differences”. In addition, the “loss of ChAT-positive motor neurons compared with non-Tg littermates” value with ALS(SOD1^H46R) mice (10 µg/kg/day, lumbar L4–L5, 21–22 weeks of age (vehicle 35.5%)) came to 15.2%. For the same molecule, the “skeletal muscle integrity (quadriceps femoris)” value in the data set with ALS(SOD1^H46R) mice (21–22 weeks of age) is given as “preserved the skeletal muscle integrity”.
